#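 Step 1: Grow cells in 96-well plates. Step 2: Expose to compound for 48 hours at 5 concentrations. Step 3: Interpolate endpoints linearly; if unreached, use highest concentration. GI50: concentration for 50% inhibition of growth.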 The source made the active and inactive calls. Rule as the data show it: active = GI50 up to about 1.1 µM and inactive = higher.
# Experiments:
# Assay in all cases: growth of human tumour cells (NCI), 48 h
# SNB-75 = tested on: SNB-75
# KM12 = tested on: KM12
# 786-0 = tested on: 786-0
# HOP-92 = tested on: HOP-92
# Malme-3M = tested on: Malme-3M
# TK-10 = tested on: TK-10
# MCF7 = tested on: MCF7
# OVCAR-3 = tested on: OVCAR-3
# HOP-62 = tested on: HOP-62
# SK-OV-3 = tested on: SK-OV-3
# A498 = tested on: A498
# SK-MEL-28 = tested on: SK-MEL-28
# U-251 = tested on: U-251
# SF-539 = tested on: SF-539
# OVCAR-8 = tested on: OVCAR-8
# UO-31 = tested on: UO-31
# COLO 205 = tested on: COLO 205
# MDA-MB-435 = tested on: MDA-MB-435
# MOLT-4 = tested on: MOLT-4
# RPMI-8226 = tested on: RPMI-8226
# SNB-19 = tested on: SNB-19
# NCI-H23 = tested on: NCI-H23
# HCT-116 = tested on: HCT-116
# UACC-257 = tested on: UACC-257
# LOX IMVI = tested on: LOX IMVI
# SN12C = tested on: SN12C
# NCI-H226 = tested on: NCI-H226
# CCRF-CEM = tested on: CCRF-CEM
# SW-620 = tested on: SW-620
# SF-295 = tested on: SF-295
# IGROV-1 = tested on: IGROV-1
# EKVX = tested on: EKVX
# HL-60 = tested on: HL-60
# BT-549 = tested on: BT-549
# SK-MEL-5 = tested on: SK-MEL-5
# NCI-H460 = tested on: NCI-H460
# UACC-62 = tested on: UACC-62
# MDA-MB-231 = tested on: MDA-MB-231
# OVCAR-4 = tested on: OVCAR-4
# DU-145 = tested on: DU-145
# K562 = tested on: K562
# NCI-H522 = tested on: NCI-H522
# A549 = tested on: A549
# PC-3 = tested on: PC-3
# HT-29 = tested on: HT-29
# M14 = tested on: M14
# OVCAR-5 = tested on: OVCAR-5
# RXF 393 = tested on: RXF 393
# SR = tested on: SR
# HCC 2998 = tested on: HCC 2998
# SF-268 = tested on: SF-268
# T47D = tested on: T47D
# MDA-N = tested on: MDA-N
# ACHN = tested on: ACHN
# CAKI-1 = tested on: CAKI-1
# Hs-578T = tested on: Hs-578T
# HCT-15 = tested on: HCT-15
# NCI/ADR-RES = tested on: NCI/ADR-RES
smiles,measurement,setting,value
Cc1nc2ccccc2c(=O)n1NC(=O)c1ccc(N)cc1,GI50,SNB-75,14.6 µM (inactive)
same,GI50,KM12,> 100 µM (inactive)
same,GI50,786-0,> 100 µM (inactive)
same,GI50,HOP-92,> 100 µM (inactive)
same,GI50,Malme-3M,> 100 µM (inactive)
same,GI50,TK-10,> 100 µM (inactive)
same,GI50,MCF7,> 100 µM (inactive)
same,GI50,OVCAR-3,> 100 µM (inactive)
same,GI50,HOP-62,> 100 µM (inactive)
same,GI50,SK-OV-3,> 100 µM (inactive)
same,GI50,A498,> 100 µM (inactive)
same,GI50,SK-MEL-28,> 100 µM (inactive)
same,GI50,U-251,> 100 µM (inactive)
same,GI50,SF-539,> 100 µM (inactive)
same,GI50,OVCAR-8,> 100 µM (inactive)
same,GI50,UO-31,> 100 µM (inactive)
same,GI50,COLO 205,> 100 µM (inactive)
same,GI50,MDA-MB-435,> 100 µM (inactive)
same,GI50,MOLT-4,> 100 µM (inactive)
same,GI50,RPMI-8226,> 100 µM (inactive)
same,GI50,SNB-19,> 100 µM (inactive)
same,GI50,NCI-H23,> 100 µM (inactive)
same,GI50,HCT-116,> 100 µM (inactive)
same,GI50,UACC-257,> 100 µM (inactive)
same,GI50,LOX IMVI,> 100 µM (inactive)
same,GI50,SN12C,> 100 µM (inactive)
same,GI50,NCI-H226,> 100 µM (inactive)
same,GI50,CCRF-CEM,> 100 µM (inactive)
same,GI50,SW-620,> 100 µM (inactive)
same,GI50,SF-295,> 100 µM (inactive)
same,GI50,IGROV-1,> 100 µM (inactive)
same,GI50,EKVX,> 100 µM (inactive)
same,GI50,HL-60,> 100 µM (inactive)
same,GI50,BT-549,> 100 µM (inactive)
same,GI50,SK-MEL-5,17.8 µM (inactive)
same,GI50,NCI-H460,> 100 µM (inactive)
same,GI50,UACC-62,> 100 µM (inactive)
same,GI50,MDA-MB-231,> 100 µM (inactive)
same,GI50,OVCAR-4,> 100 µM (inactive)
same,GI50,DU-145,> 100 µM (inactive)
same,GI50,K562,> 100 µM (inactive)
same,GI50,NCI-H522,> 100 µM (inactive)
same,GI50,A549,> 100 µM (inactive)
same,GI50,PC-3,> 100 µM (inactive)
same,GI50,HT-29,> 100 µM (inactive)
same,GI50,M14,> 100 µM (inactive)
same,GI50,OVCAR-5,> 100 µM (inactive)
same,GI50,RXF 393,> 100 µM (inactive)
same,GI50,SR,> 100 µM (inactive)
same,GI50,HCC 2998,> 100 µM (inactive)
same,GI50,SF-268,> 100 µM (inactive)
same,GI50,T47D,> 100 µM (inactive)
same,GI50,MDA-N,> 100 µM (inactive)
same,GI50,ACHN,> 100 µM (inactive)
O=C(C(=O)c1cc(-c2ccccc2)nc2ccc3ccccc3c12)c1ccccc1,GI50,SNB-75,18.4 µM (inactive)
same,GI50,KM12,31.3 µM (inactive)
same,GI50,786-0,33.5 µM (inactive)
same,GI50,Malme-3M,27.8 µM (inactive)
same,GI50,TK-10,99.3 µM (inactive)
same,GI50,MCF7,28.1 µM (inactive)
same,GI50,OVCAR-3,67.1 µM (inactive)
same,GI50,HOP-62,31.6 µM (inactive)
same,GI50,SK-OV-3,46.7 µM (inactive)
same,GI50,CAKI-1,58.3 µM (inactive)
same,GI50,Hs-578T,20.7 µM (inactive)
same,GI50,A498,90.4 µM (inactive)
same,GI50,SK-MEL-28,28.6 µM (inactive)
same,GI50,U-251,34.5 µM (inactive)
same,GI50,SF-539,32.1 µM (inactive)
same,GI50,OVCAR-8,61.2 µM (inactive)
same,GI50,UO-31,> 100 µM (inactive)
same,GI50,COLO 205,88.1 µM (inactive)
same,GI50,MDA-MB-435,33.2 µM (inactive)
same,GI50,MOLT-4,22.1 µM (inactive)
same,GI50,RPMI-8226,> 100 µM (inactive)
same,GI50,SNB-19,35.9 µM (inactive)
same,GI50,NCI-H23,34.1 µM (inactive)
same,GI50,HCT-15,75 µM
same,GI50,HCT-116,10.6 µM (inactive)
same,GI50,UACC-257,75.7 µM (inactive)
same,GI50,LOX IMVI,52 µM (inactive)
same,GI50,SN12C,> 100 µM (inactive)
same,GI50,NCI-H226,72.6 µM (inactive)
same,GI50,CCRF-CEM,24.7 µM (inactive)
same,GI50,SW-620,59 µM (inactive)
same,GI50,SF-295,52.5 µM (inactive)
same,GI50,NCI/ADR-RES,97.7 µM (inactive)
same,GI50,IGROV-1,37.9 µM (inactive)
same,GI50,EKVX,76.9 µM (inactive)
same,GI50,HL-60,20.7 µM (inactive)
same,GI50,BT-549,65.8 µM (inactive)
same,GI50,SK-MEL-5,60.1 µM (inactive)
same,GI50,NCI-H460,> 100 µM (inactive)
same,GI50,UACC-62,38.8 µM (inactive)
same,GI50,MDA-MB-231,> 100 µM (inactive)
same,GI50,OVCAR-4,21.1 µM (inactive)
same,GI50,DU-145,> 100 µM (inactive)
same,GI50,K562,18.5 µM (inactive)
same,GI50,A549,68.4 µM (inactive)
same,GI50,PC-3,43.2 µM (inactive)
same,GI50,HT-29,> 100 µM (inactive)
same,GI50,M14,67.5 µM (inactive)
same,GI50,OVCAR-5,> 100 µM (inactive)
same,GI50,RXF 393,39 µM (inactive)
same,GI50,SR,11.7 µM (inactive)
same,GI50,HCC 2998,> 100 µM (inactive)
same,GI50,SF-268,20.8 µM (inactive)
same,GI50,MDA-N,36.1 µM (inactive)
same,GI50,ACHN,> 100 µM (inactive)

# — ChEMBL document CHEMBL1201862, “PubChem BioAssay data set” (2004)
